Measurements reported in patent US7723068B2, “Gene cluster involved in safracin biosynthesis and its uses for genetic engineering” (PharmaMar, S.A., priority 2002, dated 2010).

What was measured:
IGROV [1] = settings: Ovary
DU-145 [2] = settings: Prostate
SK-MEL-28 [3] = settings: Melanoma
K-562 [4] = settings: Leukemia
DNA synthesis = assay: Secondary Screening, Macromolecules Synthesis DNA; assay type: cell-based; settings: Secondary Evaluation
K-562 [5] = assay: cells; settings: Homo sapiens; for GI50: K562, read-out: GI50 K-562; for CC50: K562, read-out: LC50 K-562
RNA synthesis = assay: Secondary Screening, Macromolecules Synthesis RNA; assay type: cell-based; settings: Secondary Evaluation
DU-145 [6] = assay: cells; settings: Homo sapiens; for GI50: DU-145, read-out: GI50 DU-145; for CC50: DU-145, read-out: LC50 DU-145
LOVO-DOX [7] = assay: cells; settings: for GI50: read-out: GI50 LOVO-DOX; for CC50: read-out: LC50 LOVO-DOX
Bacillus subtilis = assay: Antimicrobial activity on solid medium, disk; assay type: cell-based; settings: Bacillus subtilis, 10 μg/disk (6 mm diameter)
Protocol: Antimicrobial activity: On solid medium Bacillus subtilis. 10 μg/disk (6 mm diameter): 10 mm inhibition zone Spectroscopic Data: […]

HT29 [8] = settings: Colon
LOVO [9] = assay: cells; settings: Homo sapiens; for GI50: read-out: GI50 LOVO; for CC50: read-out: LC50 LOVO
PANC1 [10] = settings: Pancreas
HELA-APL [11] = settings: Cervix
PROTEIN synthesis = assay: Secondary Screening, Macromolecules Synthesis PROTEIN; assay type: cell-based; settings: Secondary Evaluation
HELA [12] = assay: cells; settings: Homo sapiens; for GI50: read-out: GI50 HELA; for CC50: read-out: LC50 HELA
HT29 [13] = assay: cells; settings: Homo sapiens; for GI50: HT-29, read-out: GI50 HT29; for CC50: HT-29, read-out: LC50 HT29
[14] = Antibacterial and antitumoral activities, general statements; settings: compared with safracin A / safracin B
IGROV-ET [15] = assay: cells; settings: for GI50: read-out: GI50 IGROV-ET; for CC50: read-out: LC50 IGROV-ET
HELA-APL [16] = assay: cells; settings: for GI50: read-out: GI50 HELA-APL; for CC50: read-out: LC50 HELA-APL
Apoptosis (NUCLEOSOMES) = assay: Secondary Screening, Apoptosis NUCLEOSOMES; assay type: cell-based; settings: Secondary Evaluation
LN-caP [17] = settings: Prostate
LN-caP [18] = assay: cells; settings: Homo sapiens, LNCaP; for GI50: read-out: GI50 LN-caP; for CC50: read-out: LC50 LN-caP
LOVO [19] = settings: Colon
LOVO-DOX [20] = settings: Colon
SK-BR3 [21] = assay: cells; settings: Homo sapiens; for GI50: SK-BR-3, read-out: GI50 SK-BR3; for CC50: SK-BR-3, read-out: LC50 SK-BR3
SK-BR3 [22] = settings: Breast
HELA [23] = settings: Cervix
SK-MEL-28 [24] = assay: cells; settings: Homo sapiens; for GI50: SK-MEL-28, read-out: GI50 SK-MEL-28; for CC50: SK-MEL-28, read-out: LC50 SK-MEL-28
DNA = assay: Secondary Screening, DNA Binding GEL; settings: Secondary Evaluation
A549 [25] = settings: NSCL
A549 [26] = assay: cells; settings: Homo sapiens; for GI50: A549, read-out: GI50 A549; for CC50: A549, read-out: LC50 A549
IGROV-ET [27] = settings: Ovary
PANC1 [28] = assay: cells; settings: Homo sapiens; for GI50: PANC-1, read-out: GI50 PANC1; for CC50: PANC-1, read-out: LC50 PANC1
IGROV [29] = assay: cells; settings: for GI50: read-out: GI50 IGROV; for CC50: read-out: LC50 IGROV

With `CCOC1=C(C)C(=O)C2=C(C1=O)C(CNC(=O)C(C)N)N1C(O)C3Cc4cc(C)c(OCC)c(O)c4C(C1C2)N3C` (centres unmarked) [Safracin B (OEt)] the “TGI IGROV” value (IGROV [1]) was 0.0997 µM, the “TGI DU-145” value (DU-145 [2]) was 1.01 µM and the “TGI SK-MEL-28” value (SK-MEL-28 [3]) was 0.44 µM. For the same molecule, the “TGI K-562” value (K-562 [4]) was 0.108 µM, the IC50 (DNA synthesis) was 1.76 µM and the GI50 (K-562 [5]) was 0.0397 µM. For the same molecule, the CC50 (K-562 [5]) was 3.69 µM, the IC50 (RNA synthesis) was 0.176 µM and the GI50 (DU-145 [6]) was 0.401 µM. It also gave a CC50 (DU-145 [6]) of 16 µM, a GI50 (LOVO-DOX [7]) of 2.09 µM and a CC50 (LOVO-DOX [7]) greater than 17.6 µM. The zone of inhibition at 10 µg/disc (Bacillus subtilis) was 17.5 mm, the “TGI HT29” value (HT29 [8]) was 1.39 µM and the GI50 (LOVO [9]) was 0.443 µM. For the same molecule, the CC50 (LOVO [9]) was greater than 17.6 µM, the “TGI PANC1” value (PANC1 [10]) was 2.06 µM and the “TGI HELA-APL” value (HELA-APL [11]) was 0.274 µM. For the same molecule, the IC50 (PROTEIN synthesis) was greater than 17.6 µM, the GI50 (HELA [12]) was 0.0892 µM and the CC50 (HELA [12]) was 1.35 µM. For the same molecule, the GI50 (HT29 [13]) was 0.244 µM, the CC50 (HT29 [13]) was greater than 17.6 µM and the “antibacterial and antitumoral activities (in words)” value [14] was “as potent as the activities of safracin A and safracin B, respectively”. For the same molecule, the GI50 (IGROV-ET [15]) was 0.682 µM, the CC50 (IGROV-ET [15]) was 6.37 µM and the GI50 (HELA-APL [16]) was 0.077 µM. The CC50 (HELA-APL [16]) was 0.976 µM, the IC50 (Apoptosis (NUCLEOSOMES)) was 0.0528 µM and the “TGI LN-caP” value (LN-caP [17]) was greater than 17.6 µM. The GI50 (LN-caP [18]) was 0.0484 µM, the CC50 (LN-caP [18]) was 0.828 µM and the “TGI LOVO” value (LOVO [19]) was 1.09 µM. The “TGI LOVO-DOX” value (LOVO-DOX [20]) was 9.88 µM, the GI50 (SK-BR3 [21]) was 0.0482 µM and the CC50 (SK-BR3 [21]) was 1.02 µM. For the same molecule, the “TGI SK-BR3” value (SK-BR3 [22]) was 0.116 µM, the “TGI HELA” value (HELA [23]) was 0.315 µM and the GI50 (SK-MEL-28 [24]) was 0.169 µM. For the same molecule, the CC50 (SK-MEL-28 [24]) was 1.13 µM, the IC50 (DNA) was 17.6 µM and the “TGI A549” value (A549 [25]) was 1.16 µM. For the same molecule, the GI50 (A549 [26]) was 0.501 µM, the CC50 (A549 [26]) was 5.66 µM and the “TGI IGROV-ET” value (IGROV-ET [27]) was 1.19 µM. The GI50 (PANC1 [28]) was 0.649 µM, the CC50 (PANC1 [28]) was 13.5 µM and the GI50 (IGROV [29]) was 0.0406 µM. It also gave a CC50 (IGROV [29]) of 4.27 µM.

With `COC1=C(C)C(=O)C2=C(C1=O)C(CNC(=O)C(C)N)N1C(O)C3Cc4cc(C)c(OC)c(O)c4C(N3)C1C2` (centres unmarked) [Safracin D] the “TGI IGROV” value (IGROV [1]) was 6.02 µM, the “TGI DU-145” value (DU-145 [2]) was 9.99 µM and the “TGI SK-MEL-28” value (SK-MEL-28 [3]) was 6.21 µM. The “TGI K-562” value (K-562 [4]) was 1.16 µM, the IC50 (DNA synthesis) was 15.2 µM and the GI50 (K-562 [5]) was 0.604 µM. The CC50 (K-562 [5]) was 3.78 µM, the IC50 (RNA synthesis) was 3.8 µM and the GI50 (DU-145 [6]) was 5.22 µM. For the same molecule, the CC50 (DU-145 [6]) was 19 µM, the GI50 (LOVO-DOX [7]) was 4.75 µM and the CC50 (LOVO-DOX [7]) was 16.5 µM. For the same molecule, the zone of inhibition at 10 µg/disc (Bacillus subtilis) was 15 mm, the “TGI HT29” value (HT29 [8]) was 17.9 µM and the GI50 (LOVO [9]) was 6.99 µM. For the same molecule, the CC50 (LOVO [9]) was greater than 19 µM, the “TGI PANC1” value (PANC1 [10]) was 11 µM and the “TGI HELA-APL” value (HELA-APL [11]) was 5.24 µM. For the same molecule, the IC50 (PROTEIN synthesis) was 19 µM, the GI50 (HELA [12]) was 3.76 µM and the CC50 (HELA [12]) was 11.9 µM. For the same molecule, the GI50 (HT29 [13]) was 4.33 µM, the CC50 (HT29 [13]) was greater than 19 µM and the “antibacterial and antitumoral activities (in words)” value [14] was “the same antibacterial and antitumoral activities as safracin B and safracin A, respectively”. For the same molecule, the GI50 (IGROV-ET [15]) was 1.33 µM, the CC50 (IGROV-ET [15]) was 9.15 µM and the GI50 (HELA-APL [16]) was 2.28 µM. The CC50 (HELA-APL [16]) was 12.1 µM, the IC50 (Apoptosis (NUCLEOSOMES)) was 2.85 µM and the “TGI LN-caP” value (LN-caP [17]) was 4.12 µM. For the same molecule, the GI50 (LN-caP [18]) was 1.54 µM, the CC50 (LN-caP [18]) was 9.78 µM and the “TGI LOVO” value (LOVO [19]) was 18.2 µM. For the same molecule, the “TGI LOVO-DOX” value (LOVO-DOX [20]) was 8.85 µM, the GI50 (SK-BR3 [21]) was 4.71 µM and the CC50 (SK-BR3 [21]) was 13 µM. For the same molecule, the “TGI SK-BR3” value (SK-BR3 [22]) was 7.82 µM, the “TGI HELA” value (HELA [23]) was 6.68 µM and the GI50 (SK-MEL-28 [24]) was 3.51 µM. For the same molecule, the CC50 (SK-MEL-28 [24]) was 11 µM, the IC50 (DNA) was 6.65 µM and the “TGI A549” value (A549 [25]) was 10.7 µM. The GI50 (A549 [26]) was 6.04 µM, the CC50 (A549 [26]) was 18.8 µM and the “TGI IGROV-ET” value (IGROV-ET [27]) was 3.34 µM. The GI50 (PANC1 [28]) was 4.77 µM, the CC50 (PANC1 [28]) was greater than 19 µM and the GI50 (IGROV [29]) was 2.68 µM. The CC50 (IGROV [29]) was 13.5 µM.
